Structures can show the parent of a compound that is named as a salt.
Key:
[1] = test system: SKOV-3; assay: Cell viability (CellTiterGlo), SKOV-3; assay type: cell-based; settings: Homo sapiens, SK-OV-3
Protocol: (§1) Candidate compounds are tested in 384-well plates for effects on cell viability in the presence or absence of an appropriate conventional anticancer drug. Cell viability is indirectly monitored in the first instance using CellTiterGlo (Promega Corp., Madison, WI) (Table D). To determine if cell death is apoptotic, the induction of caspase activity is assessed utilizing the CaspaseGlo Assay system (Promega Corp., Madison, WI) (Table E). Cell viability is monitored 1 to 3 days after addition of compounds and conventional drugs. […] A compound of any of the formulae as disclosed herein is evaluated in combination with said anticancer drug to determine which ML-IAP antagonist can sensitize most efficaciously. Select candidate compounds are tested in 14 point drug dose response (DDR) curves in a 384-well format in order to establish potency in combination with decreasing concentrations of lung cancer relevant drug regimens. Furthermore, checker-board titrations of a conventional drug and the candidate molecules are performed to search for synergy (using ISOBOLOGRAM analysis). Compounds and combinations as described herein are also tested for cytotoxicity against normal human cells (e.g. primary fibroblasts, lymphocytes, hepatocytes, epithelial and endothelial cells) using known methods.
(§2) Cell viability was evaluated following treatment with a compound as disclosed in Table D. Viability of cancer cells following treatment is indicated according to the following legend: […]

[2] = test system: Caspase 9 (SKOV-3); assay: Induction of caspase 9 activity (CaspaseGlo), SKOV-3; assay type: cell-based; settings: Homo sapiens, SK-OV-3
Protocol: as §1
(§3) The induction of caspase activities was tested with a compound as disclosed in Table E. The activities are indicated according to the following legend: […]

[3] = test system: OVCAR-4; assay: Cell viability (CellTiterGlo), OVCAR-4; assay type: cell-based; settings: Homo sapiens
Protocol: as §1, §2

[4] = target: XIAP-BIR3 (Homo sapiens (Human), UniProt P98170); assay: Fluorescence polarization (FP) assay, inhibition of SMAC peptide binding
Protocol: Compounds of the present disclosure were evaluated for potency and selectivity in a fluorescence polarization (FP) assay that measures inhibition of SMAC peptide binding to ML-IAP. To measure SMAC peptide binding, multi-well plate format FP assays based on the ability of SMAC peptides to bind the BIR domains of several IAPs are used to generate IC50 and Ki values for analogues. The FP assays utilize plasmid constructs encoding various full length IAPs or fragments for expression as either GST or His6-fusion proteins in bacteria. Compounds are evaluated for activity against several members of the IAP family, including the BIR domains of XIAP, cIAP1 and cIAP2 in order to generate selectivity profiles of the compounds disclosed herein. These assays also enable the identification and characterization of potency profiles of ML-IAP binding.
Activity of the compounds are indicated according to the following legend: […]

[5] = In vivo PK plasma exposure in mice
Protocol: Pharmacokinetic (PK) studies are performed in vivo in mice for compounds as described herein. Standard formulations are evaluated, including hydroxypropyl methylcellulose, carboxymethylcellulose, and polyethylene glycol. For intravenous studies, compounds are administered via indwelling catheters in jugular vein and samples collected from the carotid artery. These experiments provide basic pharmacokinetic parameters including peak plasma concentration (Cmax), bioavailability (% F), exposure (AUC), half-life (t½), clearance (CL), volume of distribution (Vd), and brain levels. To measure bioavailability, a compound as described herein is administered to three animals/group, both orally (10 mg/kg) and intravenously (1 mg/kg). Intraperitoneally administration is also assessed in order to determine both brain and plasma levels of compounds.
The compounds described herein were tested in vivo in mice to measure PK plasma exposure as shown in Table F. The PK plasma values are indicated according to the following legend: […]

[6] = test system: Caspase 3/7 (SKOV-3); assay: Induction of caspase 3/7 activity (CaspaseGlo), SKOV-3; assay type: cell-based; settings: Homo sapiens, SK-OV-3
Protocol: as §1, §3

[7] = test system: Caspase 3/7 (OVCAR-4); assay: Induction of caspase 3/7 activity (CaspaseGlo), OVCAR-4; assay type: cell-based; settings: Homo sapiens
Protocol: as §1, §3

[8] = test system: H460 lung cancer cells; assay: Sensitization of lung cancer cells to standard of care treatment (vinorelbine); assay type: cell-based; settings: combination with vinorelbine, FIG. 1
Protocol: In order to assess the role of ML-IAP antagonists in cancer treatment, H460 lung cancer cells are treated with a standard of care treatment (e.g., vinorelbine) alone or in combination with a selective ML-IAP antagonist. […] The leftward shift in the dose dependent response (DDR) curve indicates a resensitization of lung cancer cells to the anti-cancer agent. Furthermore, TNF induction is absent following treatment with a compound described herein in breast cancer MDA-MB-231 cells. This effect provides a substantial advantage clinically as it avoids an inappropriate inflammatory response.

[9] = test system: SKOV-3 cancer cell lines; assay: SKOV-3 cell viability after treatment with 10 μM test compound; assay type: cell-based; settings: for viability at 10 µM: Homo sapiens, SK-OV-3, 10 micromolar test compound, SKOV-3 cells
Protocol: SKOV-3 cancer cell lines were treated with a test compound, either as a pure enantiomer or a mixture of stereoisomers, at a concentration of 10 μM. Cell viability was evaluated following treatment with a compound as disclosed in Table B. Viability of cancer cells following treatment is indicated according to the following legend:
A=0-25% viability B=26-50% viability C=>50% viability

Chain of XIAP-BIR3 (P98170 241-356): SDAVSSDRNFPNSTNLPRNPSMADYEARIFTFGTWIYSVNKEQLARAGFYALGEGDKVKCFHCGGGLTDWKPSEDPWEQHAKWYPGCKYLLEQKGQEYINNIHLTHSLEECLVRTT

| SMILES | IC50 [1] [nM] | EC50 [2] [nM] | IC50 [3] [nM] | Ki [4] [nM] | PK plasma exposure at 1 h (IP, 10 mg/kg) [5] | EC50 [6] [nM] | EC50 [7] [nM] | sensitizing effect on lung cancer cells [8] | viability at 10 µM [9] [%] | % viability after treatment with 10 micromolar of test compound (SKOV-3 cells) ([9]; 10 micromolar test compound, hydrochloride) |
| --- | --- | --- | --- | --- | --- | --- | --- | --- | --- | --- |
| CN[C@@H](C)C(=O)N[C@H]1CCS[C@H]2CC(C)(C)C(C(=O)N[C@@H]3CCCc4ccccc43)N2C1=O (stereo partly drawn) [Compound A, (4S,9aS)-8,8-dimethyl-4-((S)-2-(methylamino)propanamido)-5-oxo-N—((R)-1,2,3,4-tetrahydronaphthalen-1-yl)octahydropyrrolo[2,1-b][1,3]thiazepine-7-carboxamide hydrochloride] | 1 to 10 | < 1 | 1 to 10 | 10 to 100 | iii (iii=500-1000 nM) | 1 to 10 | 1 to 10 | sensitizing effect |  |  |
| CN[C@@H](C)C(=O)N[C@H]1CCOC2CC3(CCCC3)C(C(=O)N[C@@H]3CCCc4ccccc43)N2C1=O (stereo partly drawn) [Compound 82, (4'S)-4′-((S)-2-(methylamino)propanamido)-5′-oxo-N—((R)-1,2,3,4-tetrahydronaphthalen-1-yl)hexahydro-7′H-spiro[cyclopentane-1,8′-pyrrolo[2,1-b][1,3]oxazepine]-7′-carboxamide hydrochloride] | 1 to 10 | 1 to 10 | 1 to 10 | 10 to 100 | iv (iv=>1000 nM) | 1 to 10 | 1 to 10 |  | 0 to 25 |  |
| CN[C@@H](C)C(=O)N[C@H]1CCOC2CC3(CC=CC3)C(C(=O)N[C@@H]3CCCc4ccccc43)N2C1=O (stereo partly drawn) [Compound 81, (4'S)-4′-((S)-2-(methylamino)propanamido)-5′-oxo-N—((R)-1,2,3,4-tetrahydronaphthalen-1-yl)-2′,3′,4′,5′,9′,9a′-hexahydro-7′H-spiro[cyclopentane-1,8′-pyrrolo[2,1-b][1,3]oxazepin]-3-ene-7′-carboxamide hydrochloride] | 1 to 10 | 1 to 10 | 10 to 100 | 10 to 100 | iii (iii=500-1000 nM) | 1 to 10 | 1 to 10 |  | 0 to 25 |  |
| CN[C@@H](C)C(=O)N[C@@H]1C(=O)N2[C@H](CC(C)(C)[C@H]2C(=O)N[C@@H]2CCCc3ccccc32)OC2CCCCC21 (single isomer, unassigned) [Compound 65, hydrochloride] | 10 to 100 | 1 to 10 | 10 to 100 | 10 to 100 | iii (iii=500-1000 nM) | 1 to 10 | 1 to 10 |  | 0 to 25 |  |
| CN[C@@H](C)C(=O)N[C@H]1CCS[C@H]2CC3(CCCC3)[C@@H](C(=O)N[C@@H]3CCCc4ccccc43)N2C1=O [Compound 80, (4'S,7'S,9a'S)-4′-((S)-2-(methylamino)propanamido)-5′-oxo-N—((R)-1,2,3,4-tetrahydronaphthalen-1-yl)hexahydro-7′H-spiro[cyclopentane-1,8′-pyrrolo[2,1-b][1,3]thiazepine]-7′-carboxamide hydrochloride] | < 1 | < 1 | 1 to 10 | 10 to 100 | iii (iii=500-1000 nM) | < 1 | < 1 |  | 0 to 25 |  |
| CCC1(CC)C[C@@H]2SCC[C@H](NC(=O)[C@H](C)NC)C(=O)N2C1C(=O)N[C@@H]1CCCc2ccccc21 (mixture of isomers) [Compound 38, (4S,9aS)-8,8-diethyl-4-((S)-2-(methylamino)propanamido)-5-oxo-N—((R)-1,2,3,4-tetrahydronaphthalen-1-yl)octahydropyrrolo[2,1-b][1,3]thiazepine-7-carboxamide hydrochloride] | 10 to 100 | 1 to 10 | 10 to 100 | > 100 | iii (iii=500-1000 nM) | 1 to 10 | 1 to 10 |  |  | A (A=0-25% viability) |

Reference: patent US20230295181A1, “INHIBITOR OF APOPTOSIS (IAP) PROTEIN ANTAGONISTS” (Sanford Burnham Prebys Medical Discovery Institute, priority 2020, published 2023)
